Experimental data from patent US10316039B2, “P2X3 and/or P2X2/3 compounds and methods” (Asana Biosciences, LLC, priority 2013, dated 2019).

These molecules were tested against T1, P2X3 (UniProt P56373) (assay: P2X3 FLIPR intracellular calcium assay). Conditions: agonist at EC75, species (human or rat) not given.
T1 sequence (P56373 1-397): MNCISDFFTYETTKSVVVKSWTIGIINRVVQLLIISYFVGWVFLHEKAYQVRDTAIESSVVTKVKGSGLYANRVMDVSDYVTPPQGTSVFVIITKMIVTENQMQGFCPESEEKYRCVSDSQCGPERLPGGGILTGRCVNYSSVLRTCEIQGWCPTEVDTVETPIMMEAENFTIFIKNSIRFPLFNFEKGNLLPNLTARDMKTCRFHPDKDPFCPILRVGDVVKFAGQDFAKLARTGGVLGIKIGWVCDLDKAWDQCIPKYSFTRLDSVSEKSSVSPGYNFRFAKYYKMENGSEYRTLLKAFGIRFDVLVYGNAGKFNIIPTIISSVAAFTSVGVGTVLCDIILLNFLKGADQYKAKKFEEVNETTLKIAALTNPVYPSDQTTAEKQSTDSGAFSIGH
Format: cell-based
Outline: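 Human P2X3-HEK, human P2X2/3-TRex293, rat P2X2/3-TRex293 or rat P2X3 TRex-CHO cells loaded with Calcium 4 dye (1.8 mM probenecid, pH 7.4).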

IC50, 1 to 100 nM:
CCc1cnnn1-c1cc(C(=O)NCc2ccc(C)nc2)cn2c(-c3ccc(C)s3)cnc12 [Example 22]
C[C@H](NC(=O)c1cc(-n2nncc2C(F)F)c2ncc(-c3ccc(Cl)s3)n2c1)c1nnc[nH]1 [Example 38]
CC[C@H](NC(=O)c1cc(-n2nncc2C(F)F)c2ncc(-c3ccc(C)s3)n2c1)c1nnc[nH]1 [Example 52]
